For assay [1], the system named is TGF-β1 secretion by CHO cell line TGF-β3-2000 clone 17. Put plainly: Secretion of TGF-β1 by transfected CHO cells treated with glycosylation inhibitors (pulse-chase, densitometry). In kind it is cell-based, Chinese hamster.
The subject of assay [2] is proteolytic processing of TGF-β1 precursor in TGF-β3-2000 clone 17 CHO cells. Put plainly: Proteolytic processing of TGF-β1 precursor in CHO cells treated with weak bases or ionophore. In kind it is cell-based, Chinese hamster.
Assay [3] addresses T1, IGF-II/man6P receptor on adipocytes (Rattus norvegicus, UniProt G3V824).
T1 construct: from tissue; host or cells: primary adipocytes from epididymal fat pads of male Sprague-Dawley rats
Nature of the assay: Binding to rat adipocytes with or without insulin pretreatment. The conditions noted are these: 3mM, read-out: inhibition of TGF-β1 precursor binding. As for the experimental part: The epididymal fat pads from male Sprague-Dawley rats (180-220 g) were excised, minced, and collagenase-digested as described (Rodberg, 1964, J. Biol. Chem. 239:375-380). The isolated adipocytes were pre-incubated with or without 1 µM insulin for 10 min at 37°C in 0.7 ml Krebs-Ringer buffer (107 mM NaCl, 5mM KCl, 3mM CaCl₂, 1mM MgSO₄, 7 mM NaHCO₃, 10 mM glucose, and 20 mM Hepes, pH 7.8) with 3% bovine serum albumin. The indicated labeled ligand was added and the incubations continued for 45 minutes at 37°. The cells were separated from the media by centrifugation through silicon oil and the radioactivity in the cell layer counted.

The target in assay [4] is T2, CHO cells overexpressing the human IGF-II/man6P receptor (Homo sapiens, UniProt P11717).
T2 construct: expressed in transfected cells; host or cells: CHO cells
Nature of the assay: Binding to CHO cells overexpressing the receptor. As for the experimental part:
Binding and internalization studies with transfected and control CHO cells were performed in 24-well culture plates. Confluent cells were washed and incubated for 5 hours at 4°C with the labeled ligand in 0.3 ml of binding buffer (100 mM Hepes, pH 7.6, 120 mM NaCl, 1.2 mM MgSO₄, 15 mM sodium acetate, 5 mM glucose). Cells were then washed twice, lysed with 0.1% sodium docecyl sulfate and counted. For the internalization studies, labeled ligand was added to the cells in serum-free Ham's F-12 medium containing 0.1% bovine serum albumin and 20 mM Hepes, pH 7.6. After the indicated periods of time at 37°C, the cells were put on ice and washed with pre-cooled Hepes buffered saline containing 0.3 mM CaCl₂. […] The cells were then washed, solubilized, and counted as above.

The target in assay [5] is human mannose 6-phosphate/IGF-II receptor (Homo sapiens, UniProt P11717). Nature of the assay: Solid phase receptor assay, binding of 125I-TGF-β1 precursor to purified receptor.

Where two headings read alike, the source gives them in different places.

T2 sequence (P11717 41-2491): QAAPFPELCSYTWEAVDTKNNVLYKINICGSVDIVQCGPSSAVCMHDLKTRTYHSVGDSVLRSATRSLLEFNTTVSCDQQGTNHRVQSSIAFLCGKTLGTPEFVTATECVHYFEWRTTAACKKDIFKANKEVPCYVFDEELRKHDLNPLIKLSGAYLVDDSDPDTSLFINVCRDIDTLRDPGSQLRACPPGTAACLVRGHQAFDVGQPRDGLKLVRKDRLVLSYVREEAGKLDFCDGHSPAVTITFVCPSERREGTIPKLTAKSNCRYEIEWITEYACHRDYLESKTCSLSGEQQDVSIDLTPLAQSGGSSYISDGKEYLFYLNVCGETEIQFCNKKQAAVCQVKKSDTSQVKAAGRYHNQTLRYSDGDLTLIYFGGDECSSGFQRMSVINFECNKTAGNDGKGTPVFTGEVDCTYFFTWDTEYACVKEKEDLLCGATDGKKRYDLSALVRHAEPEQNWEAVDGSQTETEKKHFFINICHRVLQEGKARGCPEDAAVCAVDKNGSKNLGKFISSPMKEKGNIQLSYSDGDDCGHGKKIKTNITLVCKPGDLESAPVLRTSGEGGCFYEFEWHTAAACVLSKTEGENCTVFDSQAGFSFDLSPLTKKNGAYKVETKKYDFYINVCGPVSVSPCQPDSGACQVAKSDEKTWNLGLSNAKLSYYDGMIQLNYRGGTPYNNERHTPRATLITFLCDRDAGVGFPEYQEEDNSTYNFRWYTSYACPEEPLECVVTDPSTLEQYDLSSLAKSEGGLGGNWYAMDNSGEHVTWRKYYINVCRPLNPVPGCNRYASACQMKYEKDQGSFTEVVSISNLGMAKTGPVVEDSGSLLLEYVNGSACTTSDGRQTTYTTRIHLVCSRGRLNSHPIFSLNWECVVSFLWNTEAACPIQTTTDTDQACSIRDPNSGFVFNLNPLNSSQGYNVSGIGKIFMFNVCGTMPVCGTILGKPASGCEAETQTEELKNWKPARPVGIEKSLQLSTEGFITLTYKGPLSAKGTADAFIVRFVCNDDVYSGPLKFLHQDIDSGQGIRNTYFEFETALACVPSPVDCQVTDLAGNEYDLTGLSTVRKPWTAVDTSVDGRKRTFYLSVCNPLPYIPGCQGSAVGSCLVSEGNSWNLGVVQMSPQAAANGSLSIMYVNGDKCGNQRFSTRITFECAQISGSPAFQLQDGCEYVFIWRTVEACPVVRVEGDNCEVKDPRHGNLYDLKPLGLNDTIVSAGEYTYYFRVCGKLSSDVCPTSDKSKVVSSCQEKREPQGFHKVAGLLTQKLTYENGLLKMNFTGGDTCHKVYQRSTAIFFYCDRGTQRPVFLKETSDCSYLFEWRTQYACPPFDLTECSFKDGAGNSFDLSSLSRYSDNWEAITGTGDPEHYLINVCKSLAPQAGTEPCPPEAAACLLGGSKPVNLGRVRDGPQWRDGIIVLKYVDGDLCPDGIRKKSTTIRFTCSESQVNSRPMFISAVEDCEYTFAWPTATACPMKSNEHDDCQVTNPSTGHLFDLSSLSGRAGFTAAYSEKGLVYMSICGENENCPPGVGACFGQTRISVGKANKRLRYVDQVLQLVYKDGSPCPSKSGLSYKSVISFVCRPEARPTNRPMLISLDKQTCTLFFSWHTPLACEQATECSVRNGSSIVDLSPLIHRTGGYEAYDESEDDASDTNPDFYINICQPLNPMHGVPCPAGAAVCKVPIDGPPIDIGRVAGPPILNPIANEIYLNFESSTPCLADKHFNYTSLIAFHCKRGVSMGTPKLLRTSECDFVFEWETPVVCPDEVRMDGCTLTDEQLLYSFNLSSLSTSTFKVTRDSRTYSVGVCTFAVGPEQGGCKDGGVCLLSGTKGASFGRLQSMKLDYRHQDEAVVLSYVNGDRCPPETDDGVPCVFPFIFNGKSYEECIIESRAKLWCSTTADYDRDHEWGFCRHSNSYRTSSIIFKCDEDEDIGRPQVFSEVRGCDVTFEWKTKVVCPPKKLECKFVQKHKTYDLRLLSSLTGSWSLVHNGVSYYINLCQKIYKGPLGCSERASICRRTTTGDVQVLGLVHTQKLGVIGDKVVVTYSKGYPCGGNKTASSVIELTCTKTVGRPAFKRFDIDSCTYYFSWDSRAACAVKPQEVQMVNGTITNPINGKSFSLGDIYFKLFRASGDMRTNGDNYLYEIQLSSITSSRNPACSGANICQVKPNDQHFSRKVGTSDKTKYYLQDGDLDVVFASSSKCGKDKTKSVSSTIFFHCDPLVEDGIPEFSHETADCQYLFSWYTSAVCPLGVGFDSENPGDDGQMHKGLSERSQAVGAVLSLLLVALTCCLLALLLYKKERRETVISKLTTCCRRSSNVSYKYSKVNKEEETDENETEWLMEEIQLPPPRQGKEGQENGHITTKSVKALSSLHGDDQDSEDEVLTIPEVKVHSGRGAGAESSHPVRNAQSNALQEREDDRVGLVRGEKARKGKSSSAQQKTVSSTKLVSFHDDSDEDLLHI
T1 sequence (G3V824 36-2481): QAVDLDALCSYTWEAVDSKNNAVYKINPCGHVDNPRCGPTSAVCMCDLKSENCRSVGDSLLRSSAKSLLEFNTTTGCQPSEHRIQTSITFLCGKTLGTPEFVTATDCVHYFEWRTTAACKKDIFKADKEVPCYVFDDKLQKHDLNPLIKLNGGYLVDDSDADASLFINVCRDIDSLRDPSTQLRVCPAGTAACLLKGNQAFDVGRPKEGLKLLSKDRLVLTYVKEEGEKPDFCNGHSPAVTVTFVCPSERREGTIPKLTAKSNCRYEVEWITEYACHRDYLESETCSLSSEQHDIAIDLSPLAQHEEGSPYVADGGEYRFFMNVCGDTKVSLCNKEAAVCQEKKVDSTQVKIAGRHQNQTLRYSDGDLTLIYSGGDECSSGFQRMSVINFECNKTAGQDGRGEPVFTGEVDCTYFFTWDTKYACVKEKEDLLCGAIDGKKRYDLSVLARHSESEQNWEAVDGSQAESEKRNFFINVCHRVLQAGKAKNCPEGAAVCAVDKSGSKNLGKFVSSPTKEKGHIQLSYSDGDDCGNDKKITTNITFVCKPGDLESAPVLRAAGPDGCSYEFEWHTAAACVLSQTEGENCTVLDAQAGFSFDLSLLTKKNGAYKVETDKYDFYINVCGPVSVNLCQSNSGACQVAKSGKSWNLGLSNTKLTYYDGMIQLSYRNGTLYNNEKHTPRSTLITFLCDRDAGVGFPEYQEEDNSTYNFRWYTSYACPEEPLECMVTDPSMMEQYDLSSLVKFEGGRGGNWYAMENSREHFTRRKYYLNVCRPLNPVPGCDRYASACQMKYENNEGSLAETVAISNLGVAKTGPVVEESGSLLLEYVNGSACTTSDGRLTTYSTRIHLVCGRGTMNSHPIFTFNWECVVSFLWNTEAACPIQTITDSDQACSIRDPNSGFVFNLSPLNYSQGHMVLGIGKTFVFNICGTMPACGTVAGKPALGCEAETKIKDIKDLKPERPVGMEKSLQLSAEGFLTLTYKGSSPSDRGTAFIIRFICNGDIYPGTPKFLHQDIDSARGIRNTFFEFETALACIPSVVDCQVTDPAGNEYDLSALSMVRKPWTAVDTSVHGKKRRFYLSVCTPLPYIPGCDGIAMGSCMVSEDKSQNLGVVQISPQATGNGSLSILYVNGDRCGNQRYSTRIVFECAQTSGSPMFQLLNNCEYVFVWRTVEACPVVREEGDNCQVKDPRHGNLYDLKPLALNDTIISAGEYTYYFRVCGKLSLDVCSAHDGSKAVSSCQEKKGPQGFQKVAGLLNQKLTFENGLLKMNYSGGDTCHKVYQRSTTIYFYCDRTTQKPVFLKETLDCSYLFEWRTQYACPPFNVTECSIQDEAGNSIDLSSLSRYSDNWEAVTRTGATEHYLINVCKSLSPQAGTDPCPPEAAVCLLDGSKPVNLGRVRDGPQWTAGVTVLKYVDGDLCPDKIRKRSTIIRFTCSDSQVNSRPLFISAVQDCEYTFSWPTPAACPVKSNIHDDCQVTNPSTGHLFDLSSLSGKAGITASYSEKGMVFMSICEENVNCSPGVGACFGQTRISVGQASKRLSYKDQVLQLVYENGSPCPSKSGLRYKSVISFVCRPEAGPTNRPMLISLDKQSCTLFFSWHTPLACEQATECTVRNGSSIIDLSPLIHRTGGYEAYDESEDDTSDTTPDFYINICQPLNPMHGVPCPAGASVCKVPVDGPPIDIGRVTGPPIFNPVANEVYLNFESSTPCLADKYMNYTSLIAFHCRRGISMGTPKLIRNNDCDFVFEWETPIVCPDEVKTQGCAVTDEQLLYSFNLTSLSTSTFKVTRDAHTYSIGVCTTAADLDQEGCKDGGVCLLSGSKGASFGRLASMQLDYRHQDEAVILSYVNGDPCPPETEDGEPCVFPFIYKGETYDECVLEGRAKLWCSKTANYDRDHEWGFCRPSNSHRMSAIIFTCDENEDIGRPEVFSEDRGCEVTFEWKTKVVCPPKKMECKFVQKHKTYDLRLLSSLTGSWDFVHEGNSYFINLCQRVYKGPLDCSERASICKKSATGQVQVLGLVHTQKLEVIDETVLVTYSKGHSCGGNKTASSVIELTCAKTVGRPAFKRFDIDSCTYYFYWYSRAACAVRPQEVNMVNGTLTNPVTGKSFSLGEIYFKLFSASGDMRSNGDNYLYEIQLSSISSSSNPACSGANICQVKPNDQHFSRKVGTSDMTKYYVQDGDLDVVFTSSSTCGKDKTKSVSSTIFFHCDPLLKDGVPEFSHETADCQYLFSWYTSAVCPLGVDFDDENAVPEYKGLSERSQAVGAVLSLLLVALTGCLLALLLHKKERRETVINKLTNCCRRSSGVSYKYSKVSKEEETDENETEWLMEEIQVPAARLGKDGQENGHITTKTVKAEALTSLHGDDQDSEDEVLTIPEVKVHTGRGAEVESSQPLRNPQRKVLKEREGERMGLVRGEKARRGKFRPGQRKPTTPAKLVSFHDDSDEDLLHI
Chain of human mannose 6-phosphate/IGF-II receptor (P11717 41-2491): as the sequence (P11717 41-2491) above

For `OC[C@H]1NC[C@H](O)[C@@H](O)[C@@H]1O` [dN, 1-deoxynojirimycin], the activity at 4000 µM in assay [1] (Cricetulus griseus, CHO, 6 h chase, 6 µM TU, 0.52 mM CA, 4 mM dN, read-out: level of secretion relative to control cells) lay in the range of 5 to 15%.

For `O[C@H]1[C@H](O)[C@@H](O)CN2CC[C@H](O)[C@H]12` [CA, castanospermine], in assay [1] (Cricetulus griseus, CHO, 6 h, read-out: level of secretion relative to control cells), the activity at 520 µM lay within 5 to 15%.

`CC[C@@]1([C@@H]2O[C@@H]([C@H]3O[C@@](O)(CO)[C@H](C)C[C@@H]3C)C[C@@H]2C)CC[C@H]([C@]2(C)CC[C@]3(C[C@H](O)[C@@H](C)[C@@H]([C@@H](C)[C@@H](OC)[C@H](C)C(=O)O)O3)O2)O1` [monensin]: the “cleavage efficiency (proteolytic processing) relative to control values” in assay [2] is given as ~20%.

On to `OC[C@H]1NC[C@@H](O)[C@@H](O)[C@@H]1O` [dMM, 1-deoxymannojirimycin], for which, in assay [1] (Cricetulus griseus, CHO, 6 h chase, 0.23 mM SW, 4 mM dMM, read-out: increase in levels of secreted recombinant proteins), the activation at 4000 µM is ~30%.

As for `CCN(CC)CCCC(C)Nc1ccnc2cc(Cl)ccc12` (stereo not drawn) [Chloroquine, Chloroquine diphosphate], the activity at 200 µM in assay [2] (Cricetulus griseus, CHO, 6 h chase, 10mM ammonium chloride, 200 µM chloroquine, 1 µM monensin, read-out: cleavage efficiency (proteolytic processing) relative to control values) is ~20%.

As for `O=P(O)(O)OC[C@H]1OC(O)[C@@H](O)[C@@H](O)[C@@H]1O` (stereo partly drawn) [mannose 6-phosphate], the inhibition at 3000 µM is 65% in assay [3] (control adipocytes) and 81% in assay [3] (insulin-treated adipocytes). Also, the IC50 in assay [4] (FIG. 37A, read-out: half-maximal inhibition of TGF-β1 precursor binding to transfected CHO cells) is 10 µM; in assay [4] (read-out: half-maximal inhibition of rTGF-β1 precursor binding to transfected CHO cells) it was 10 µM; in assay [5] (read-out: half-maximal inhibition of binding to the isolated receptor) it was 8 µM. In addition, the inhibition at 50 µM in assay [5] (50µM competitor, read-out: inhibition of 125I-labeled TGF-β1 precursor binding to purified receptor) came out at 90%.

Consider tunicamycin, for which the “level of secretion relative to control cells” value in assay [1] (6 h chase, 6 µM TU, 0.52 mM CA, 4 mM dN) is 5-15%.

For the compound `O[C@H]1[C@H]2[C@H](O)CCCN2C[C@H]1O` [SW, swainsonine], in assay [1] (Cricetulus griseus, CHO, 6 h, read-out: increase in levels of secreted recombinant proteins), the activation at 230 µM is ~30%.

On to ammonium chloride, for which, in assay [2] (6 h chase, 10mM ammonium chloride, 200 µM chloroquine, 1 µM monensin), the “cleavage efficiency (proteolytic processing) relative to control values” was “about 70%”.

In the case of `O=P(O)(O)OC1O[C@H](CO)[C@@H](O)[C@H](O)[C@@H]1O` (stereo partly drawn) [Mannose 1-phosphate, mannose 1-phosphate], the “times less effective than man6P at inhibiting binding of the TGF-β1 precursor” value in assay [4] (FIG. 37A) is given as “at least 1,000 times”.
